According to PMC3629565, “Sphingolipid synthesis and scavenging in the intracellular apicomplexan parasite, Toxoplasma gondii” (Molecular and Biochemical Parasitology, 2013):

Target: T1, TgSLS (Toxoplasma gondii, UniProt A0A2U9EWT7)
T1 construct: parasites elsewhere RH, locus tag of ME49), pRS426MET25 in S. cerevisiae YPH499-HIS-GAL-AUR1, CHAPS-washed microsomes; no tag mentioned
T1 sequence (A0A2U9EWT7 1-427): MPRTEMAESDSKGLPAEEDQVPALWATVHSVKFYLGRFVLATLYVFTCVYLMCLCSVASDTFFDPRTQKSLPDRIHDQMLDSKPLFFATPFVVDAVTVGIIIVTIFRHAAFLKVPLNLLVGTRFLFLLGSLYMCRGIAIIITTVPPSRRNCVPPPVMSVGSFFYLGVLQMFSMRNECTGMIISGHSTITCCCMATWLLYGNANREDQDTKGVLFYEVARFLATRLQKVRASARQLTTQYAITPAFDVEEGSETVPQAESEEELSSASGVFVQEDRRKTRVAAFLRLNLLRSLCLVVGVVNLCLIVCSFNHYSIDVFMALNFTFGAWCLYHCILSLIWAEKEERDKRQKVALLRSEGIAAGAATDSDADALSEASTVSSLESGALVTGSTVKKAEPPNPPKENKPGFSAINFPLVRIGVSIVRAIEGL
Assay: IPC formation by CHAPS-washed yeast microsomes, HPTLC fluorescence
Type: biochemical
Conditions: acceptor substrate at 5 μM; donor 1 mM bovine liver phosphatidylinositol; 10 mM EDTA, 6 mg/ml BSA, 30 °C, 60 min; labelled compound

Structure (SMILES): CCCCCCCCCCCCC/C=C/[C@@H](O)[C@H](CO)NC(=O)CCCCCNc1ccc([N+](=O)[O-])c2nonc12 [NBD C6-ceramide]
- IPC formation by CHAPS-washed yeast microsomes, HPTLC fluorescence: reaction of CHAPS-washed TgSLS extract with acceptor substrate NBD-C6-ceramide
